Reference: patent US11261230B2, “Synthetic somatostatin receptor ligands” (TEL HASHOMER MEDICAL RESEARCH INFRASTRUCTURE AND SERVICES …, priority 2014, dated 2022)
*1 amine or outer side, *2 acyl side, *3 side chain or, on linkers, in order; H or OH if unused. Where a SMILES comes first, the peptide text is derived from it. Bridges are numbered along the chain shown (N, C = ends). [ ]: non-standard residue; d: D form. The star is where a group is joined. FITC = O=C1OC2(c3ccc(O)cc3Oc3cc(O)ccc32)c2ccc(NC(=S)*)cc21; N(2-mercaptoethyl)Gly = O=C(CN(CCS[*:3])[*:1])[*:2]; Aib = CC(C)(N)C(=O)O; GABA = NCCCC(=O)O

Assays:
[1] = biological target: T1, human SSTR1 (Homo sapiens, UniProt P30872); test: Binding to transfected HEK cells expressing a single SSTRx subtype, FACS
T1 construct: expressed in transfected cells; host or cells: HEK-293, transient transfection, pcDNA 3.1
Procedure: (§1) The affinity of compounds 1-16 to each of the five SSTRx was tested using an in vitro model of transfected cell lines (HEK—human embryonic kidney), each expressing a single human SSTRx subtype. Biological activity assessment of the compounds to define a specific affinity to each subtype was performed by FACS and fluorescence imaging methods.
(§2) Human SSTRx were expressed in the cells by transient transfection. Each SSTR was expressed separately, creating five different cell lines using human gene transcript.
(§3) The transfection process is illustrated in FIG. 1. The transient transfection process was carried out before each experiment. Briefly, HEK cells were cultured in standard cell growth conditions. For testing, the cells were transferred into 96-well plates. The tested compounds were dissolved in DMSO and then diluted in a buffer solution to a final DMSO concentration of 5% as a composition according to the teachings herein. Various amounts of the thus-prepared compositions were added to the cells in medium in the 96-well plates and allowed to incubate for between 1 and 24 hours. Binding was determined using fluorescent microscopy and FACS.
(§4) Qualitative assessment of binding efficiency was done by visual inspection and digital photography using an inverted fluorescent microscope. Quantitative assessment was done using FACS.
(§5) HEK-293 cells (human embryonic kidney) were grown in Dulbecco's modified Eagle's medium (DMEM) supplemented with 4 mM glutamine, 10% fetal bovine serum (FBS) and 100 units/ml penicillin/streptomycin at 37° C./5% carbon dioxide. One day prior to transfection, the cells were trypsinized, counted and plated at a density of 3×10^5 per 35 mm diameter dish. Until 70% confluency, cells were transiently transfected with the pcDNA 3.1 vector bearing the coding region for the human SSTR human somatostatin receptor subtypes SSTR1-SSTR5. Transfections were carried out with JetPei transfection reagent (Polyplus-transfection, NY, USA) according to the manufacturer's recommendation. Briefly, 2 micrograms of plasmid DNA and 6 microliter of JetPei transfection reagent were used for each transfection. Each of the components were resuspended in 100 microliter of 150 mM NaCl, mixed and incubated for 25 minutes at room temperature and after incubation added to cells.
(§6) Cells were then seeded in a 96-well flat-bottom microplate (Costar, Corning, N.Y.) at a concentration of 5×10^4 cells/well. Twelve hours later, the supernatant was removed and replaced with fresh DMEM containing various (in the nM range) concentrations of tested compounds 1-16. The cells were incubated for additional time intervals ranging from 0.5-24 hr. At the end of the incubation period, supernatant was discarded and the cells were washed twice with cold PBS. The plates were examined using IX81 inverted microscope (Olympus, Japan) equipped with […] digital camera. Additionally, a FACS assay was used for quantitative analysis.
(§7) Quantitative assessment of binding affinity of Compounds 1-16 was performed by FACS in the transfected HEK cell model.
(§8) Quantitatively, specific binding affinity was assessed as the percentage of double stained [(GR=green and red indicating transfection)/(R is total red) less (G is green indicating unspecific binding)]: specific binding affinity=[GR/R−G]

[2] = biological target: T2, human SSTR2 (Homo sapiens, UniProt P30874); test: as above
T2 construct: expressed in transfected cells; host or cells: HEK-293, transient transfection, pcDNA 3.1
Procedure: as §1, §2, §3, §4, §5, §6, §7, §8

[3] = biological target: T3, human SSTR3 (Homo sapiens, UniProt P32745); test: as above
T3 construct: expressed in transfected cells; host or cells: HEK-293, transient transfection, pcDNA 3.1
Procedure: as §1, §2, §3, §4, §5, §6, §7, §8

[4] = biological target: T4, human SSTR4 (Homo sapiens, UniProt P31391); test: as above
T4 construct: expressed in transfected cells; host or cells: HEK-293, transient transfection, pcDNA 3.1
Procedure: as §1, §2, §3, §4, §5, §6, §7, §8

[5] = biological target: T5, human SSTR5 (Homo sapiens, UniProt P35346); test: Binding to transfected HEK cells expressing a single SSTRx subtype, FACS and fluorescence microscopy
T5 construct: expressed in transfected cells; host or cells: HEK-293, transient transfection, pcDNA 3.1
Procedure: as §1, §2, §3, §4, §5, §6, §7, §8

[6] = test system: SSTR1-SSTR5; test: Binding specificity across the five SSTRx transfected HEK cell lines; set-up: species or system human; conditions: conclusions drawn from Table 2-A
Procedure: Biological activity assessment of the compounds to define a specific affinity to each subtype was performed by FACS and fluorescence imaging methods. Human SSTRx were expressed in the cells by transient transfection. Each SSTR was expressed separately, creating five different cell lines using human gene transcript. The transfection process is illustrated in FIG. 1. The transient transfection process was carried out before each experiment. Briefly, HEK cells were cultured in standard cell growth conditions. For testing, the cells were transferred into 96-well plates. The tested compounds were dissolved in DMSO and then diluted in a buffer solution to a final DMSO concentration of 5% as a composition according to the teachings herein. Various amounts of the thus-prepared compositions were added to the cells in medium in the 96-well plates and allowed to incubate for between 1 and 24 hours. Binding was determined using fluorescent microscopy and FACS. Cells were then seeded in a 96-well flat-bottom microplate (Costar, Corning, N.Y.) at a concentration of 5×10^4 cells/well. […] Additionally, a FACS assay was used for quantitative analysis. […] Quantitatively, specific binding affinity was assessed as the percentage of double stained [(GR=green and red indicating transfection)/(R is total red) less (G is green indicating unspecific binding)]: specific binding affinity=[GR/R−G]

[7] = test system: PANC-1 tumors; conditions: mouse, in vivo
Procedure: Five different pharmaceutical compositions were prepared, each by dissolving 1 mg of a different Somatostatin receptor ligand in 1 liter PBS.
Solid human-derived tumors were induced in 15 nude mice by subcutaneous injection of a suspension containing ˜5□10^5 human cancer cells (PANC-1) into the flank area of the mice.
2-3 weeks after the injection of the cancer cells, it was observed that the mice developed solid tumors with diameters of approximately 5-10 mm.
0.3 ml of each one of the five pharmaceutical compositions were systemically administered to three of the fifteen xenograft mice by injection into the tail vein using a 30 G needle.
The fifteen mice were sacrificed and from the bodies tumors, pancreas, spleen, kidney and liver were harvested.
The fluorescence of the harvested tissue was determined using the Maestro™ in vivo fluorescence imaging system (Cambridge Research & Instrumentation, Inc., Woburn, Mass., USA).

[8] = FACS, transfected HEK, specific binding affinity = percentage double stained [GR/R−G], 0 = no binding detected
[9] = Table 2 normalized according to the highest binding affinity of that compound
[10] = Table 2 normalized to Compound 1 (=100)

T5 sequence (P35346 whole entry): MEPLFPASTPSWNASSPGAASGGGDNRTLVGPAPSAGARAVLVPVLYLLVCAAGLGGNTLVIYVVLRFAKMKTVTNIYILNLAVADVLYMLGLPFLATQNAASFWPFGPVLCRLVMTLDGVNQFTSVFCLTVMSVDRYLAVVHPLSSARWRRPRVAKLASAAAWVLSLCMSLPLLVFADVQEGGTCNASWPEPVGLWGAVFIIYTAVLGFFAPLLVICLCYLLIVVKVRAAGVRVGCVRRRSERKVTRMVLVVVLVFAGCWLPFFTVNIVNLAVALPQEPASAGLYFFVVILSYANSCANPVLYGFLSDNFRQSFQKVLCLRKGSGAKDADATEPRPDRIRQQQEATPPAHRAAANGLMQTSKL
T1 sequence (P30872 whole entry): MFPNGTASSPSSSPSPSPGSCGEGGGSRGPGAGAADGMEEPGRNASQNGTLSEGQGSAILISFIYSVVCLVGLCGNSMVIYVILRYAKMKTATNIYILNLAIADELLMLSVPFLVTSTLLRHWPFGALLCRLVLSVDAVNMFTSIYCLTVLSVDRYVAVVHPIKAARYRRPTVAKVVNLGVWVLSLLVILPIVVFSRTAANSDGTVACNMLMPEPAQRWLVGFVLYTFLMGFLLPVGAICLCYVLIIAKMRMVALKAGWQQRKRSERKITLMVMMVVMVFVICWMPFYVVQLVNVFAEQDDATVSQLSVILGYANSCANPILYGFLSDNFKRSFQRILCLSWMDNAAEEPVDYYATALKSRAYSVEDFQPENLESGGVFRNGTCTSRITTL
T2 sequence (P30874 whole entry): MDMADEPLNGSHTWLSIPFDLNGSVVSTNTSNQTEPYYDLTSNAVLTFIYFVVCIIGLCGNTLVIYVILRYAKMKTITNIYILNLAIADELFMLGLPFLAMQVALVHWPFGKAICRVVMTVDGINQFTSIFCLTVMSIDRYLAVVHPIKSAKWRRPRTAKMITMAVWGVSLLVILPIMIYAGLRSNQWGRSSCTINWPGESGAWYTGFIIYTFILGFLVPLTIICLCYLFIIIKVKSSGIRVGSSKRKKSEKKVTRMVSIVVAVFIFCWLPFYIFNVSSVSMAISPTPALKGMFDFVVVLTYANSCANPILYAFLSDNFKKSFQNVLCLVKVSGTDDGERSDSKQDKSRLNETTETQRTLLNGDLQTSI
T4 sequence (P31391 whole entry): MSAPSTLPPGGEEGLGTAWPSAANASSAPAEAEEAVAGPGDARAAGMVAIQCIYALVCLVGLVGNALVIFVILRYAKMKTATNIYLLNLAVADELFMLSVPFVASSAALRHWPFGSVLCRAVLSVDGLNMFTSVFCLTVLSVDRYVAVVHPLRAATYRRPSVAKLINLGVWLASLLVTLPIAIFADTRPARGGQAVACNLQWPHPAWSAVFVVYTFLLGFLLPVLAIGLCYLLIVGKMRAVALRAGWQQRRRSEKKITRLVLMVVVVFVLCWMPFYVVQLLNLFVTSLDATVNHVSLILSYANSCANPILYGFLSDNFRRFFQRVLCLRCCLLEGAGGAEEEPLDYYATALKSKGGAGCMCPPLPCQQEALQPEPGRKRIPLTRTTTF
T3 sequence (P32745 whole entry): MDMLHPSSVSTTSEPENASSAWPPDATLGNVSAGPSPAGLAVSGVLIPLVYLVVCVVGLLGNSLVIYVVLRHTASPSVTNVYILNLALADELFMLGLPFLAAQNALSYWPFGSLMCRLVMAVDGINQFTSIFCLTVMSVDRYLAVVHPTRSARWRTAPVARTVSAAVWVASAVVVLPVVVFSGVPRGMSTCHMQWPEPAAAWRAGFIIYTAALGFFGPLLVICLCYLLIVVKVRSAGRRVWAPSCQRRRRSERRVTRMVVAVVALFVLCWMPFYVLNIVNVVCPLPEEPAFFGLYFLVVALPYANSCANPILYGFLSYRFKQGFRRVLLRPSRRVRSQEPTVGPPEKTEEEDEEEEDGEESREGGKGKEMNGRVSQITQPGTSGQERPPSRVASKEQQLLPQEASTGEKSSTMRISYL

Q: `C[C@@H](O)[C@@H]1NC(=O)C(C)(C)NC(=O)[C@@H](Cc2c[nH]c3ccccc23)NC(=O)[C@H](Cc2c[nH]c3ccccc23)NC(=O)[C@H](Cc2ccccc2)NC(=O)[C@@H](NC(=O)[C@@H](Cc2ccccc2)NC(=O)CCCNC(=S)Nc2ccc3c(c2)C(=O)OC32c3ccc(O)cc3Oc3cc(O)ccc32)CSSCCN(CC(N)=O)C(=O)[C@H](Cc2ccccc2)NC1=O` [Compound 13, FITC-GABA-D-Phe-Cys-Phe-Trp-D-Trp-Aib-Thr-Phe-GlyS2] ({FITC-GABA}-[dF]CFW[dW][Aib]TF[N(2-mercaptoethyl)Gly]-NH2; disulfide 2-9) was tested. Which “Relative binding affinity SSTR1” value [1, 8] did it give?
A: Its value is 1.

Q: What about the “Adjusted binding affinity SSTR1” value [1, 9] of the same molecule?
A: The value was 0.11.

Q: And the “Binding affinity to SSTR1 relative to Compound 1” value [1, 10]?
A: Its value is 33.

Q: What about the “Relative binding affinity SSTR2” value [2, 8] of the same molecule?
A: Its value is 0.

Q: What about the “Adjusted binding affinity SSTR2” value [2, 9] of the same molecule?
A: Its value is 0.

Q: And the “Binding affinity to SSTR2 relative to Compound 1” value [2, 10]?
A: Its value is 0.

Q: And the “Relative binding affinity SSTR3” value [3, 8]?
A: Its value is 6.

Q: And the “Adjusted binding affinity SSTR3” value [3, 9]?
A: The value was 0.67.

Q: What about the “Binding affinity to SSTR3 relative to Compound 1” value [3, 10] of the same molecule?
A: The value was 35.

Q: And the “Relative binding affinity SSTR4” value [4, 8]?
A: Its value is 4.

Q: And the “Adjusted binding affinity SSTR4” value [4, 9]?
A: The value was 0.44.

Q: What about the “Binding affinity to SSTR4 relative to Compound 1” value [4, 10] of the same molecule?
A: Its value is 18.

Q: And the “Relative binding affinity SSTR5” value [5, 8]?
A: Its value is 9.

Q: What about the “Adjusted binding affinity SSTR5” value [5, 9] of the same molecule?
A: Its value is 1.

Q: What about the “Binding affinity to SSTR5 relative to Compound 1” value [5, 10] of the same molecule?
A: Its value is 32.

Q: What about the “Binding specificity among the five SSTRx (in words)” value [6] of the same molecule?
A: The value was “to SSTR3 and SSTR5 and not SSTR1, SSTR2 and SSTR4”.

Q: How did the “Intensity in healthy tissue (in words)” value [7] turn out when `C[C@@H](O)[C@@H]1NC(=O)[C@H](CCCCN)NC(=O)[C@@H](Cc2c[nH]c3ccccc23)NC(=O)[C@H](Cc2ccccc2)NC(=O)[C@H](CCCNC(=N)N)NC(=O)[C@@H](NC(=O)CCCNC(=S)Nc2ccc3c(c2)C(=O)OC32c3ccc(O)cc3Oc3cc(O)ccc32)CSSCCN(CC(N)=O)C(=O)[C@H](Cc2ccccc2)NC1=O` [Compound 9, FITC-GABA-Cys-Arg-Phe-D-Trp-Lys-Thr-Phe-GlyS2] ({FITC-GABA}-CRF[dW]KTF[N(2-mercaptoethyl)Gly]-NH2; disulfide 1-8) was run?
A: The value was “undetectable in the healthy tissues”.
